Publication PMC9775191, “A Subset Screen of the Compounds Australia Scaffold Library Identifies 7-Acylaminodibenzoxazepinones as Potent and Selective Hits for Anti-Giardia Drug Discovery” (Biomedicines, 2022)

System: G. duodenalis BRIS/91/HEPU/1279
Experiment: Primary Giardia screen at 10 µM (live-cell imaging, automated counting)
Assay type: cell-based, Giardia duodenalis
Settings: for % Inhibition n=1 48h / % Inhibition n=1 24h: first singlicate assay; for % Inhibition n=2 24h / % Inhibition n=2 48h: re-assessment
Summary of the method: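 One concentration, 10 μM, is screened per compound in singlicate under microaerophilic gas (3% O2, 5% CO2, N2). Inhibition comes from automated image-based counts at 24 and 48 h, relative to 0.2% DMSO controls.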

SMILES	% Inhibition n=1 48h	other results
CCOC(=O)CCNC(=O)N1CCc2c(nc3cc(-c4ccccc4Cl)[nH]n3c2=O)C1 [SN00800844]	13.6%	–
COc1cccc(CNC(=O)Cn2nc(C(=O)Nc3ccccc3)ccc2=O)c1 [SN00793567]	4.7%	–
O=C(NCCCN1CCN(c2ccccc2)CC1)c1noc2c1CCCCC2 [SN00788368]	9.7%	–
CN(CCCN)C(=O)c1ccc2c(=O)n3c(nc2c1)CCCCC3 [SN00785585]	25.4%	–
O=C(Nc1cnc(-c2ccccc2)nc1)c1ccccc1C(F)(F)F [SN00799772]	0.0%	–
O=C1C(=O)N(Cc2coc(-c3ccc(Cl)cc3)n2)C(=O)N1Cc1ccccc1 [SN00777999]	18.6%	–
CCn1ccc(C(=O)Nc2ccc3c(c2)Sc2ncccc2C(=O)N3C)n1 [SN00800580]	19.0%	–
CCn1c(Cn2c(-c3cccnc3)noc2=O)nc2c(F)cccc21 [SN00781429]	0.0%	–
COC(=O)c1ccc(F)c(S(=O)(=O)NC2(c3nc(C)cs3)CCC2)c1 [SN00772601]	27.1%	–
CC(C)CCNC(=O)C1(C)CCc2ccccc2C(=O)N1Cc1ccccc1F (stereo not drawn) [SN00785390]	14.6%	–
O=C(Cn1nnc(-c2cccs2)n1)NCc1ccc(Cl)cc1 [SN00775829]	45.7%	–
CCc1nc(-c2ccc3c(c2)CCN3C(=O)CCc2ccc(OC)cc2)no1 [SN00790989]	14.1%	–
Cc1sc2ncn(CCN(C)C)c(=O)c2c1C(=O)Nc1ccc(S(N)(=O)=O)nc1 [SN00803001]	26.5%	–
O=S(=O)(c1cccs1)N1CCc2[nH]cnc2C1 [SN00798784]	0.0%	–
CCC1CCCCN1C(=O)Cn1c(C(=O)OC)cc2occc21 (stereo not drawn) [SN00785479]	8.8%	–
C=CCn1c(=O)c(N2CCC(NC(=O)NC3CCCC3)CC2)nc2cccnc21 [SN00797341]	6.8%	–
COc1ccc(CNS(=O)(=O)c2c(C)nc3sc(C)nn23)cc1 [SN00799344]	4.3%	–
C=CCNC(=O)CCN1CCN(Cc2ccccc2)C1=O [SN00791850]	0.0%	–
FC(F)Oc1ccc(-c2csc(Cc3nnc4n3CCCCC4)n2)cc1 [SN00776417]	34.2%	Average % Inhibition 24h: 12.3%; % Inhibition n=1 24h: 22.0%; % Inhibition n=2 24h: 2.6%; Average % Inhibition 48h: 19.6%; % Inhibition n=2 48h: 5.0%
CN1CCC(Oc2ncccc2C(=O)N2CCOCC2)CC1 [SN00800013]	15.5%	–
CC(C)CCNC(=O)C1CCCCN1S(=O)(=O)c1ccc(F)cc1 (stereo not drawn) [SN00784282]	5.5%	–
CC(=O)c1cccc(NS(=O)(=O)c2c(C)n[nH]c2C)c1 [SN00784818]	5.0%	–
CCOC(=O)c1cccc(Nc2ncccc2S(N)(=O)=O)c1 [SN00799296]	70.8%	Average % Inhibition 24h: 14.5%; % Inhibition n=1 24h: 29.1%; % Inhibition n=2 24h: 0.0%; Average % Inhibition 48h: 35.4%; % Inhibition n=2 48h: 0.0%
COc1ccc(-c2c(C(=O)Nc3cccc(Cl)c3)nn3c(C)cc(=O)[nH]c23)cc1 [SN00795279]	7.0%	–
CCCS(=O)(=O)c1nc2ccc(NS(=O)(=O)CCc3ccccc3)cc2s1 [SN00797950]	20.2%	–

SMILES	% Inhibition n=1 48h	other results
COc1ccc(S(=O)(=O)N(C)c2ccsc2C(=O)NCCC(C)C)cc1 [SN00797030]	10.4%	–
O=C(C1CCC1)N1CCCc2cc(S(=O)(=O)Nc3ccccc3)ccc21 [SN00793348]	0.0%	–
COc1cccc(Cn2nc3c(S(=O)(=O)N4CCOCC4)cccn3c2=O)c1 [SN00798018]	4.9%	–
Cc1csc(-c2ccc(CNC(=O)c3n[nH]c4ccccc34)cc2)n1 [SN00799624]	25.2%	–
CCOC(=O)c1cc2n(n1)CC(C)(C(=O)NCCC(C)C)N(CCc1cccs1)C2=O (stereo not drawn) [SN00785530]	6.6%	–
O=C1C(=O)N(C2CCCC2)C(=O)N1Cc1nc(-c2ccsc2)no1 [SN00774178]	0.0%	–
CCc1nc(N2CCCC2=O)sc1C(=O)Nc1ccc(C)c(C)c1 [SN00796500]	0.0%	–
CNC1(c2nnnn2-c2ccc(OC)cc2)CCCCC1 [SN00794158]	11.8%	–
Cn1cccc1C1CCCCCN1C(=O)CCSCc1nc2sc3c(c2c(=O)[nH]1)CCC3 (stereo not drawn) [SN00778065]	67.7%	Average % Inhibition 24h: 0.2%; % Inhibition n=1 24h: 0.0%; % Inhibition n=2 24h: 0.4%; Average % Inhibition 48h: 38.7%; % Inhibition n=2 48h: 9.8%
Cc1ccc(S(=O)(=O)n2ccn(C(=O)c3ccccc3C)c2=O)cc1 [SN00789027]	0.0%	–
Cc1ccc(COCc2nn(C)c3c2CN(C(=O)Nc2ccccc2)CC3)cc1 [SN00796435]	0.0%	–
CCc1ccc(-n2c(CN3CCN(S(C)(=O)=O)CC3)nc3cccnc32)cc1 [SN00796120]	7.0%	–
COc1cc2ccccc2cc1C(=O)Nc1nc2c(s1)CN(Cc1ccccc1)CC2 [SN00788706]	9.9%	–
Cc1ccccc1C1CCCN1Cc1nc2c(cnn2C)c(=O)[nH]1 (stereo not drawn) [SN00772523]	56.4%	Average % Inhibition 24h: 0.0%; % Inhibition n=1 24h: 0.0%; % Inhibition n=2 24h: 0.0%; Average % Inhibition 48h: 28.2%; % Inhibition n=2 48h: 0.0%
CC(C)n1c(=O)c2cn(S(=O)(=O)c3ccccc3)nc2n(C(C)C)c1=O [SN00791107]	5.9%	–
COc1ccc(N2C(=O)c3ccncc3C2=O)c(OC)c1 [SN00807767]	28.6%	–
O=C(COc1ccccc1)N1CCCN(c2cccnn2)CC1 [SN00772032]	1.9%	–
COc1ccc(CCNC(=O)c2cc(-c3cccs3)on2)cc1OC [SN00784489]	33.2%	–
CCNC(=O)c1c(C)oc2c1CNCC2 [SN00802246]	10.3%	–
CC1=NN(C(=O)COc2ccc(C)c(C)c2)C(O)(C(F)(F)F)C1 (stereo not drawn) [SN00783577]	0.0%	–
COc1ccccc1NC(=O)c1cn2c3c(cc(Br)cc3c1=O)CC2 [SN00794326]	11.4%	–
COc1ccccc1C(=O)n1ccn(S(=O)(=O)c2ccc(C)cc2)c1=O [SN00789029]	6.3%	–
O=C(CCNS(=O)(=O)c1cccnc1)N1CCCC(c2nc3ccccc3o2)C1 (stereo not drawn) [SN00780535]	0.0%	–
CC1(C(=O)NC2CCCC2)Cn2c(ccc2-c2ccco2)C(=O)N1c1cccc(F)c1 (stereo not drawn) [SN00787693]	11.7%	–
O=[N+]([O-])c1cccc(S(=O)(=O)N2CCCCCC2c2cccs2)c1 (stereo not drawn) [SN00793864]	25.8%	–

SMILES	% Inhibition n=1 48h	other results
Cc1noc(C)c1S(=O)(=O)N1CCC(C(=O)NCC(c2ccccc2)N(C)C)CC1 (stereo not drawn) [SN00775659]	0.0%	–
CN(C)C(=O)c1ccc(OC2CCN(C(=O)c3ccco3)CC2)nc1 [SN00800077]	13.6%	–
CC(=O)Nc1cc(C(=O)NCCCN2CCC(C)CC2)ccc1S(=O)(=O)c1ccc(Cl)cc1 [SN00794609]	23.9%	–
CC(=O)Nc1ccc2c(c1)CN(C(=O)C1CCCCC1)C(C(=O)N1CCCCC1)C2 (stereo not drawn) [SN00798930]	8.7%	–
O=C(CCC(=O)N1CCCC1c1nc2ccccc2[nH]1)c1ccccc1 (stereo not drawn) [SN00776900]	28.7%	–
Cc1cc(NC(=O)c2ccc([N+](=O)[O-])cc2)n(-c2nc3ccccc3[nH]2)n1 [SN00776157]	6.0%	–
Cc1cccc(-c2cc(N3CCN(C(=O)c4cc(Cl)ccc4F)CC3)ncn2)c1 [SN00798065]	47.1%	–
Cc1ccc(C)c(NC(=O)Cc2nc(Cn3cnc([N+](=O)[O-])c3)cs2)c1 [SN00779996]	47.9%	Average % Inhibition 24h: 8.5%; % Inhibition n=1 24h: 0.0%; % Inhibition n=2 24h: 16.9%; Average % Inhibition 48h: 59.9%; % Inhibition n=2 48h: 71.9%
O=C(Nc1ccc2sc(NS(=O)(=O)c3ccccc3)nc2c1)Nc1ccccc1Cl [SN00797595]	4.6%	–
O=C(CCN1C(=O)CCC1=O)N1CCCC(N2CCCCCC2)C1 (stereo not drawn) [SN00772233]	7.1%	–
Cc1oc(C2CCC2)nc1C(=O)NC(C)c1ccccn1 (stereo not drawn) [SN00802442]	17.0%	–
Cc1ccc(C2c3cccn3-c3ccccc3CN2C(=O)c2cccnc2)cc1 (stereo not drawn) [SN00795042]	0.0%	–
CCCCn1c(=O)[nH]c2cc(-c3nc(-c4ccc(F)cc4)no3)ccc2c1=O [SN00789403]	0.3%	–
Cc1cccc(N(C)c2ccc3cc(S(=O)(=O)N4CCCC4)ccc3n2)c1 [SN00788730]	7.2%	–
Cc1ccc(NC(=O)c2ccc(=O)n(CCN3CCOCC3)n2)cc1 [SN00793573]	2.3%	–
CCc1ccc(-c2cc(C(=O)N3CCN(c4c(C)n(-c5ccccc5)c(=O)n(C)c4=O)CC3)[nH]n2)cc1 [SN00790031]	0.0%	–
Cc1cc(C2CCCN(C(=O)CCc3cnn(C)c3)C2)n[nH]1 (stereo not drawn) [SN00782611]	7.8%	–
Cc1nc(CN2CCCNCC2)oc1C [SN00778765]	0.0%	–
Cc1cc2c(cc1C)N(CC(=O)NCc1cccs1)C(=O)C1CCCC1=N2 (stereo not drawn) [SN00789389]	11.1%	–
Cc1ccc(NC(=O)Nc2ccc3c(c2)CN(Cc2ccccc2)C3)c(C)c1 [SN00796327]	41.2%	–
CCCN(C(=O)c1cccc(NC(=O)[C@H]2[C@@H]3C[C@@H]4[C@H]2C(=O)O[C@@H]4C3)c1)c1ccccc1F (relative stereo) [SN00785932]	2.8%	–
O=C(Cn1c(-c2cccnc2)noc1=O)NCC1CCCO1 (stereo not drawn) [SN00781423]	0.0%	–
O=S(=O)(Cc1ccc(C(F)(F)F)cc1)Cc1noc(C2CC2)n1 [SN00781153]	0.0%	–
CCCn1c(=O)c2c(nc3n2CCN3c2ccc(CC)cc2)n(C)c1=O [SN00779194]	0.0%	–
